# Test results reported in patent publication US9801371B2, “Self-assembling polymer particle release system” (priority 2010, dated 2017).
# Where “and” joins values, the source holds several entries; their conditions need not be identical. Identical values can stand only once. Like-named read-outs stand apart in the source and are kept apart here.
# Key:
# [1] = cited from earlier work
# [2] = Filter paper test: ten 10-ml water washings, UV analysis of AI washed through; format: physicochemical; conditions: for mobility on filter paper or soil: washed with several 10 ml aliquots of water; for R (rating factor, number of washings to deplete the AI): ten 10-ml water washings
# Description: All of the polymers in this set of experiments were combined with the AI at a 70% AI by weight to 30% polymer by weight concentrations. […] The filter paper samples were applied to a slightly wet Buchner funnel to set the paper evenly and then ten 10-ml aliquots of de-ionized (DI) water were suctioned through the filter paper. Ultraviolet light (UV) analysis for each of the 10-ml fractions was used to determine the absorption of the AI (264 nm) washed through the filter paper and recorded as absorption versus each individual 10-ml wash.
# The control for these systems was evaluated by placing methylene chloride solutions of the AI alone or the polymer alone onto the filter paper, drying overnight, and washing with ten 10-ml aliquots of DI water.
# The AI was dry ground (mortar and pestle) with urea-formaldehyde flower foam as the cage material [commercial product (Foliage Fresh)] where the ratio of AI to flower foam was 70%/30% by weight. This mixture then was tumbled-coated with an organic solvent solution of a hydrophobic polymer (paraffin wax/hexane; polystyrene/toluene; silicone oil/toluene) in a round bottom flask. […] Small amounts (0.07 g) of the powder were placed on the filter paper and subsequently washed with ten 10-ml aliquots of DI water and analyzed in a similar manner as previously described.
# Liquid samples of the AI-polymer combinations and AI control samples were applied to filter paper (Whatman #2) and dried for 24 hours at room temperature. The filter paper containing the AI-polymer combination or the AI control samples were placed in a Buchner funnel under water aspiration vacuum conditions, while ten 10-ml aliquots of water were applied to the top of the filter paper containing the AI-polymer or AI control material, which was then sucked through the filter paper and collected in the receiving flask that holds the funnel-vacuum attachment.
# After each 10-ml aliquot of water was suctioned through the filter paper containing the sample, the suctioned solution then was removed and analyzed with a UV spectrometer for any AI that went through the water washing process. The ten 10-ml sequential washings were a simulation of how an AI applied to soil would remain on the soil and migrate through the soil under a rain environmental exposure condition.
# Dry 100% solid samples were placed on the filter paper directly and subsequently washed with ten 10-ml aliquots in a similar manner as the liquid samples that were dried after placement on the filter paper.
# Various concentrations of the AI's were dissolved in water or water and a co-solvent and analyzed at 254 nm or other UV/visible regions of the spectrum in order to establish a standard calibration curve of absorbance versus AI concentration.
# [3] = Table 26, USDA Pesticide Properties Database
smiles,measurement,setting,value
CC(C)(C)C(O)C(Oc1ccc(Cl)cc1)n1cncn1 (stereo not shown) [Triadimenol],KOC,[1]; Tables 21-25,273
CCNc1nc(NC(C)(C)C)nc(SC)n1 [Terbutryn],KOC,[1]; Tables 21-25,2000
COC(=O)c1ccccc1S(=O)(=O)NC(=O)N(C)c1nc(C)nc(OC)n1 [Tribenuron-Methyl],KOC,[1]; Tables 21-25,31
O=C(Nc1nc(OC(F)F)cc(OC(F)F)n1)NS(=O)(=O)c1ccccc1C(=O)O [Primisulfuron],KOC,[1]; Tables 21-25,50
CCOP(=S)(OCC)SCSCC [Phorate],KOC,[1]; Tables 21-25,1660
CNC(=O)CSP(=S)(OC)OC [Dimethonate],KOC,[1]; Tables 21-25,30
CCNc1nc(Cl)nc(NCC)n1 [Simazine],KOC,[1]; Tables 21-25,130
COP(=S)(OC)Oc1cc(Cl)c(I)cc1Cl [Iodufenphos],KOC,[1]; Tables 21-25,50000
COP(=O)(OC)O/C(C)=C/C(=O)N(C)C [Dicrotophos],KOC,[1]; Tables 21-25,75
CN(C)c1nc(=O)n(C2CCCCC2)c(=O)n1C [Hezazinone],KOC,[1]; Tables 21-25,54
CCOP(=S)(OCC)Oc1ccc([N+](=O)[O-])cc1 [Parathion],KOC,[1]; Tables 21-25,7660
CN(C)C(=O)Nc1cccc(C(F)(F)F)c1 [Fluometuron],KOC,[1]; Tables 21-25,67.4
CCOP(=S)(OCC)Oc1nc(Cl)c(Cl)cc1Cl [Chlorpyrifos],KOC,[1]; [3],"6,000 mg/g"
CSc1nc(NC(C)C)nc(NC(C)C)n1 [Prometryn],KOC,[1]; Tables 21-25,400
CCNc1nc(Cl)nc(NC(C)(C)C#N)n1 [Cyanazine],KOC,[1]; Tables 21-25,190
Cc1nn(-c2cc(NS(C)(=O)=O)c(Cl)cc2Cl)c(=O)n1C(F)F [Sulfentrazone],KOC,[1]; Tables 21-25,43
CC(COc1ccc(Oc2ccccc2)cc1)Oc1ccccn1 (stereo not shown) [Pyriproxyfen],Koc,[1]; clay-loam soils,"58,000"
same,% released,"[2]; filter paper/soil release system, washing 1 (first line)",0%
same,% released,"[2]; filter paper/soil release system, washing 3",0%
same,% released,"[2]; filter paper/soil release system, washing printed 1 (second line)",0%
same,mobility on filter paper or soil,[2],no mobility
same,mobility on filter paper or soil,[2]; listed as PPF,did not move with any of the water washes
COP(=S)(OC)Oc1ccc(SC)c(C)c1 [Fenthion],KOC,[1]; Tables 21-25,1500
Nc1c(Cl)c(Cl)nc(C(=O)O)c1Cl [Picloram],KOC,[1]; Tables 21-25,35
CCOP(=S)(OCC)SCCSCC [Disulfuton],KOC,[1]; Tables 21-25,13454
CN(C)C(=O)Nc1ccc(Cl)cc1 [Monuron],KOC,[1]; Tables 21-25,150
COP(=S)(OC)SCn1nnc2ccccc2c1=O [Azinphosmethyl],KOC,[1]; Tables 21-25,1000
CCOC(=O)c1ccccc1S(=O)(=O)NC(=O)Nc1nc(Cl)cc(OC)n1 [Chlorimuron-Ethyl],KOC,[1]; Tables 21-25,106
Clc1nc(Cl)nc(Nc2ccccc2Cl)n1 [Anilazine],KOC,[1]; Tables 21-25,2000
O=C(O)c1c(Cl)ccc2cc(Cl)cnc12 [Quinclorac],KOC,[1]; Tables 21-25,50
Cc1ccn2nc(S(=O)(=O)Nc3c(F)cccc3F)nc2n1 [Flumetsulam],KOC,[1]; Tables 21-25,28
COC(=O)c1ccccc1S(=O)(=O)NC(=O)Nc1nc(C)cc(C)n1 [Sulfometuron-Methyl],KOC,[1]; Tables 21-25,85
O=C(O)Cc1cccc2ccccc12 [1-Napthylacetic Acid],KOC,[1]; Tables 21-25,385
CCc1cnc(C2=NC(C)(C(C)C)C(=O)N2)c(C(=O)O)c1 (stereo not shown) [Imazethapyr],KOC,[1]; Tables 21-25,52
"CC(C)N.O=C(O)COc1ccc(Cl)cc1Cl [2,4-D Amine Salt (Control)]",R Values,"[2]; R line of the washing table, filter paper",2
same,% released,"[2]; washing 1, sample applied to filter paper and dried",94%
same,% released,"[2]; washing 2, sample applied to filter paper and dried",6%
same,% released,"[2]; washing 4, sample applied to filter paper and dried",0%
same,% released,"[2]; washing 5, sample applied to filter paper and dried",0%
same,% released,"[2]; washing 6, sample applied to filter paper and dried",0%
same,% released,"[2]; washing 7, sample applied to filter paper and dried",0%
same,% released,"[2]; washing 8, sample applied to filter paper and dried",0%
same,% released,"[2]; washing 9, sample applied to filter paper and dried",0%
same,% released,"[2]; washing 10, * = not all of the sample was released after 10 washings",0%
same,% released,"[2]; washing 33, sample applied to filter paper and dried",0%
COc1cc(OC)nc(NC(=O)NS(=O)(=O)c2ncccc2C(=O)N(C)C)n1 [Nicosulfuron],KOC,[1]; Tables 21-25,21
Cc1cccc2sc3nncn3c12 [Tricyclazole],KOC,[1]; Tables 21-25,169
COC(=O)c1cccc(C)c1S(=O)(=O)NC(=O)Nc1nc(OCC(F)(F)F)nc(N(C)C)n1 [Triflusulfuron-Methyl],KOC,[1]; Tables 21-25,40
CC(C)c1ccc(NC(=O)N(C)C)cc1 [Isoproturon],KOC,[1]; Tables 21-25,122
CCS(=O)(=O)c1cccnc1S(=O)(=O)NC(=O)Nc1nc(OC)cc(OC)n1 [Rimsulfuron],KOC,[1]; Tables 21-25,47
CCOP(=S)(OCC)SCSC(C)(C)C [Terbufos],KOC,[1]; [3],500 mg/g
O=C(NC(=O)c1c(F)cccc1F)Nc1cc(Cl)c(OC(F)(F)C(F)C(F)(F)F)cc1Cl (stereo not shown) [Lufenuron],KOC,[1]; Tables 21-25,41182
O=C(Nc1ccccc1)Nc1cnns1 [Thidiazuron],KOC,[1]; Tables 21-25,742
CCCOP(=S)(OCCC)SCC(=O)N1CCCCC1C (stereo not shown) [Piperophos],KOC,[1]; Tables 21-25,5202
CCOP(=S)(OCC)Oc1cc(C)nc(C(C)C)n1 [Diazinon],KOC,[1]; [3],1000 mg/g
COc1nc(NC(C)C)nc(NC(C)C)n1 [Prometon],KOC,[1]; Tables 21-25,150
CN(C)C(=O)Nc1ccc(Cl)c(Cl)c1 [Diuron],KOC,[1]; Tables 21-25,1067
CCNc1nc(NC(C)C)nc(SC)n1 [Ametryn],KOC,[1]; Tables 21-25,316
C[n+]1ccc(-c2cc[n+](C)cc2)cc1 [Paraquat],KOC,[1]; [3],"1,000,000 mg/g"
CCNc1nc(Cl)nc(NC(C)C)n1 [Atrazine],KOC,[1]; Tables 21-25,100
CCCC1COC(Cn2cncn2)(c2ccc(Cl)cc2Cl)O1 (stereo not shown) [Propiconazole],KOC,[1]; Tables 21-25,1086
COc1nc(C)nc(NC(=O)NS(=O)(=O)c2ccccc2Cl)n1 [Chlorsulfuron],KOC,[1]; Tables 21-25,36.3
CCOP(=S)(OCC)Oc1nc(Cl)n(C(C)C)n1 [Isazofos],KOC,[1]; Tables 21-25,155
CC1CCCCC1NC(=O)Nc1ccccc1 (stereo not shown) [Siduron],KOC,[1]; Tables 21-25,420
CCCSP(=O)(OCC)Oc1ccc(Br)cc1Cl (stereo not shown) [Profenofos],KOC,[1]; Tables 21-25,2016
CCOP(=S)(OCC)OC(Cl)C(Cl)(Cl)Cl (stereo not shown) [Chlorethoxyfos],KOC,[1]; Tables 21-25,6100
CNC(=O)N(C)c1nnc(C(C)(C)C)s1 [Tebuthiuron],KOC,[1]; [3],80 mg/g
CC(C)C1(C)N=C(c2nc3ccccc3cc2C(=O)O)NC1=O (stereo not shown) [Imazaquin],KOC,[1]; Tables 21-25,18
CS(=O)(=O)NC(=O)c1cc(Oc2ccc(C(F)(F)F)cc2Cl)ccc1[N+](=O)[O-] [Fomesafen],KOC,[1]; Tables 21-25,50
CC(C)C1(C)N=C(c2ncccc2C(=O)O)NC1=O (stereo not shown) [Imazapyr],% released,"[2]; filter paper, 10-ml water washing 1, listed as AI Control",49%
same,% released,"[2]; filter paper, 10-ml water washing 1, listed as IMI Acid",41%
same,% released,"[2]; filter paper, 10-ml water washing 1, listed as IMI acid alone",28%
same,% released,"[2]; filter paper, 10-ml water washing 2, listed as AI Control",47% and 49%
same,% released,"[2]; filter paper, 10-ml water washing 2, listed as IMI Acid",39% and 37%
same,% released,"[2]; filter paper, 10-ml water washing 2, listed as IMI acid alone",30%
same,% released,"[2]; filter paper, 10-ml water washing 3, listed as AI Control",4% and 2%
same,% released,"[2]; filter paper, 10-ml water washing 3, listed as IMI Acid",14%
same,% released,"[2]; filter paper, 10-ml water washing 3, listed as IMI acid alone",25%
same,% released,"[2]; filter paper, 10-ml water washing 4, listed as AI Control",0%
same,% released,"[2]; filter paper, 10-ml water washing 4, listed as IMI Acid",6% and 5%
same,% released,"[2]; filter paper, 10-ml water washing 4, listed as IMI acid alone",13%
same,% released,"[2]; filter paper, 10-ml water washing 5, listed as AI Control",0%
same,% released,"[2]; filter paper, 10-ml water washing 5, listed as IMI Acid",0%
same,% released,"[2]; filter paper, 10-ml water washing 5, listed as IMI acid alone",4%
same,% released,"[2]; filter paper, 10-ml water washing 6",0%
same,% released,"[2]; filter paper, 10-ml water washing 7",0%
same,% released,"[2]; filter paper, 10-ml water washing 8",0%
same,% released,"[2]; filter paper, 10-ml water washing 9",0%
same,% released,"[2]; filter paper, 10-ml water washing 10, * = not all released after 10 washings",0%
same,"R (rating factor, number of washings to deplete the AI)","[2]; filter paper, listed as AI Control",3
same,"R (rating factor, number of washings to deplete the AI)","[2]; filter paper, listed as AI control",3
same,"R (rating factor, number of washings to deplete the AI)","[2]; filter paper, listed as IMI Acid",4
same,"R (rating factor, number of washings to deplete the AI)","[2]; filter paper, listed as IMI acid alone",5
CC(C)Nc1nc(Cl)nc(NC(C)C)n1 [Propazine],KOC,[1]; Tables 21-25,154
